Experimental findings from US8742132B2, “Indolylmaleimide derivatives processes for their production and pharmaceutical compositions” (Novartis AG, priority 2006, dated 2014) are described below.

In general, IC50 refers to the midpoint of a concentration-inhibition curve.

The target of one assay is T1, Human recombinant PKCβ1 (Homo sapiens, UniProt P05771).
T1 construct: purchased Oxford Biomedical Research
The assay can be described thus: Protein Kinase Cβ1 Assay. In kind it is biochemical. To be noted: single compounds. How it is done: (§1) The compounds of the invention are tested for their activity on different PKC isoforms according to the following method. Assay is performed in a white with clear bottom 384-well microtiterplate with non-binding surface. The reaction mixture (25 μl) contains 1.5 μM of a tridecapeptide acceptor substrate that mimics the pseudo substrate sequence of PKC a with the Ala→Ser replacement, 10 μM ^33P-ATP, 10 mM Mg(NO3)2, 0.2 mM CaCl2, PKC at a protein concentration varying from 25 to 400 ng/ml (depending on the isotype used), lipid vesicles (containing 30 mol % phosphatidylserine, 5 mol % DAG and 65 mol % phosphatidylcholine) at a final lipid concentration of 0.5 mM, in 20 mM Tris-HCl buffer pH 7.4 +0.1% BSA. Incubation is performed for 60 min at room temperature. Reaction is stopped by adding 50 μl of stop mix (100 mM EDTA, 200 μM ATP, 0.1% Triton X-100, 0.375 mg/well streptavidin-coated SPA beads in phosphate buffered saline w/o Ca, Mg. After 10 min incubation at room temperature, the suspension is spun down for 10 min at 300 g. Incorporated radioactivity is measured in a Trilux counter for 1 min. IC50 measurement is performed on a routine basis by incubating a serial dilution of inhibitor at concentrations ranging between […]. IC50 values are calculated from the graph by curve fitting with XL Fit® software. […]

A further assay addresses T2, Human recombinant PKCα (Homo sapiens, UniProt P17252).
T2 construct: purchased Oxford Biomedical Research
The assay can be described thus: Protein Kinase Cα Assay. Particulars: single compounds. In kind it is biochemical. How it is done:
as §1

SMILES strings stand for the structures.

T1 sequence (P05771 whole entry): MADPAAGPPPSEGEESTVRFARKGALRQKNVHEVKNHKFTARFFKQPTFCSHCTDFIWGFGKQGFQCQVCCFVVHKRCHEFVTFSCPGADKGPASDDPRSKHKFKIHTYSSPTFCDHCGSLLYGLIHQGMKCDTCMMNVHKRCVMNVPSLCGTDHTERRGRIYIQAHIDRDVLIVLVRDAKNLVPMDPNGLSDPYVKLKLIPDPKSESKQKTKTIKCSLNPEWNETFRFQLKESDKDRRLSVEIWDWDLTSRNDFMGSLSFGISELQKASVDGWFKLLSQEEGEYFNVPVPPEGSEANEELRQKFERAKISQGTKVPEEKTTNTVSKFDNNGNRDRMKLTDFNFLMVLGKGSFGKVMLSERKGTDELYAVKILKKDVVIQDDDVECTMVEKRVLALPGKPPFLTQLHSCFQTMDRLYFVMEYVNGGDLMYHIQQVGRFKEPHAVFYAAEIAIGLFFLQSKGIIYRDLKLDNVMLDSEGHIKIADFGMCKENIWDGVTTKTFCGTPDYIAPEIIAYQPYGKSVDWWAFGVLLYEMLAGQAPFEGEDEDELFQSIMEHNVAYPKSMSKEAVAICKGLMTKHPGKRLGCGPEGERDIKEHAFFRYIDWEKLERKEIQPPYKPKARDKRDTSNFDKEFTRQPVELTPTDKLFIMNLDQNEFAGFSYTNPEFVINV

As to `Cc1cc2ccc(CN(C)C)cn2c1C1=C(c2c[nH]c3ccccc23)C(=O)NC1=O` [Example 24, 3-(6-Dimethylaminomethyl-2-methyl-indolizin-3-yl)-4-(1H-indol-3-yl)-pyrrole-2,5-dione], at Human recombinant PKCβ1, the IC50 is 18.2 nM.

As for `Cc1ccc2c(C3=C(c4c(C(F)(F)F)[nH]c5ccc(CN(C)C)cc45)C(=O)NC3=O)c[nH]c2c1` [Example 47], the 50% inhibitory concentration (IC50) at Human recombinant PKCβ1 was determined as 0.9 nM.

`CNCc1ccc2[nH]c(C)c(C3=C(c4cn(C)c5ccccc45)C(=O)NC3=O)c2c1` [Example 51]: at Human recombinant PKCα, the half-maximal inhibitory concentration (IC50) was found to be 0.3 nM.
